Patent US11866405B2, “Substituted indazoles as IRAK4 inhibitors” (AstraZeneca AB, priority 2020, dated 2024)
Where two headings read alike, the source gives them in different places.

How the values were obtained:
[1] = target: IRAK4 auto-phosphorylation (Homo sapiens (Human), UniProt Q9NWZ3); assay: IRAK4 phosphorylation cell assay in IL-1β-stimulated Karpas-299 cells; assay type: cell-based; settings: IL-1β 22.7 ng/mL, pIRAK4 (Thr345/Ser346), geometric mean of at least 2 experiments
Summary of the method: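 Karpas-299 cells were preincubated 1 h at 37 °C with compound (10-point half-log series, top 30 μM), then stimulated 10 min with 22.7 ng/mL IL-1β. Cells were fixed and stained for pIRAK4 (Thr345/Ser346), and per-cell fluorescence was quantified by high-content imaging. IC50 values are geometric means of at least 2 experiments.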

[2] = tested on: IL-1β stimulated IL-8 release in hTHP1 cells; assay: IL-1β-induced IL-8 release in human THP-1 monocyte cell line; assay type: cell-based; settings: THP-1 cells, IL-1β 1.8 ng/mL
Method: Effect of IRAK4 Inhibitors on IL-1β-Induced Cytokine Release in Human THP-1 Monocyte Cell Line
THP-1 cells were cultured in RPMI 1640 (Gibco 72400-021) containing 10% FBS (Gibco 10270-106), 1 mM Na-pyruvate (Gibco 11360-070) and 100 U/mL Penicillin-Streptomycin (Gibco 15140-122). Cells were plated at 5×10^4 cells per well in 384 well Echo certified plates (Labcyte PPT-0200) to which compounds had been added at various concentrations (10 point half log dose response with a final top concentration of 10 μM) using an Echo 655 (Labcyte Inc). The plate was incubated for 1 h at 37° C., then recombinant […] (R&D Systems 201-LB-025/CF) was added to a final concentration of 1.8 ng/mL. The plates were incubated at 37° C. for 18h. The plates were centrifuged at 250×g for four minutes, then 1.6 μL of the cell supernatant was transferred to a white low volume 384 well plate (Greiner #784075) using acoustic dispensing on an Echo 655. Next, 200 nL of acceptor bead (5 mg/mL) and biotinylated anti-IL-8 antibody (500 nM) was added using acoustic dispensing (beads and antibody were from a PerkinElmer 18 Alpha LISA detection kit, AL224C). The plate was sealed, briefly centrifuged, then incubated at room temperature for 1 h. Afterwards, 200 nL of donor bead solution (5 mg/mL) was added, the plate sealed and briefly centrifuged, then incubated for 1 h before being read on an Envision plate reader to allow determination the concentration of IRAK4 inhibitor required to effect a 50% reduction in the amount of IL-8 released following IL-1β stimulation in THP1 cells (Table 2). The quantified data were analysed in Genedata Screener 15 (Genedata AG). Data presented are the geometric mean of at least n=2, or as denoted by an * are obtained from a single experiment.

[3] = target: human recombinant IRAK4 protein (Homo sapiens (Human), UniProt Q9NWZ3); assay: IRAK4 enzyme assay (mass spectrometry readout); assay type: biochemical; settings: 3 mM ATP, 0.2 nM enzyme; geometric mean of at least n=2, * single experiment
Summary of the method: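 0.2 nM IRAK4 preincubated 15 min at room temperature with compound (10-point half-log series, top 1 μM or 10 μM) in pH 7.4 Tris buffer with 3 mM ATP; 10 μM peptide substrate added, 2 h at room temperature, formic acid stop. Phospho/unphospho peptide ratio by LC-MS/MS; potency from curve fit, geometric mean of n≥2 or single run.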

[4] = 18 h, geometric mean of at least n=2, * n = 1, read-out: hTHP1, IL1β stim, IL8 release red. IC50
[5] = Homo sapiens, THP-1, 18 h, geometric mean of at least n=2, * n = 1, read-out: hTHP1, IL1β stim, IL8 release red. IC50

IRAK4 auto-phosphorylation, sequence (Q9NWZ3 whole entry): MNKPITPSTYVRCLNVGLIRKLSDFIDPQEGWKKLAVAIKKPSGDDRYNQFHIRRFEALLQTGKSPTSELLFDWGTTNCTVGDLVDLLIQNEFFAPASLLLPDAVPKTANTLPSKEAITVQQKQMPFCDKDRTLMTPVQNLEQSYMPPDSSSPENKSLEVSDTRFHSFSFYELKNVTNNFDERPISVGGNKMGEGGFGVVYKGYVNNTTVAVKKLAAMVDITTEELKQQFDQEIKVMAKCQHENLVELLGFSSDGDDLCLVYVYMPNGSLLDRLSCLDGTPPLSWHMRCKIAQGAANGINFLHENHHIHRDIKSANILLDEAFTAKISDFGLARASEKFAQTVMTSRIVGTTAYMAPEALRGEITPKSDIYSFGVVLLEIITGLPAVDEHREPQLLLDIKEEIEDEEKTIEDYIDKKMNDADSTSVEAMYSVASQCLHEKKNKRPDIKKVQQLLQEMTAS
human recombinant IRAK4 protein, sequence (Q9NWZ3 whole entry): as above

“2-((1r,4r)-4-(cyclopropanecarboxamido)cyclohexyl)-6-methoxy-N-(pyrazolo[1,5-a]pyrimidin-3-yl)-2H-indazole-5-carboxamide [Example 26]” gave an IC50 [1] of 26 nM, an IC50 [2, 4] of 25 nM and an IC50 [3] of 1.6 nM.

“6-Cyclopropoxy-2-((1r,4r)-4-(N-methylacetamido)cyclohexyl)-N-(pyrazolo[1,5-a]pyrimidin-3-yl)-2H-indazole-5-carboxamide [Example 33]” showed an IC50 [1] of 45 nM, an IC50 [2, 4] of 30 nM and an IC50 [3] of 1 nM.

`COc1cc2nn(C3CCC4(CC3)CC(C)(O)C4)cc2cc1C(=O)Nc1cnc2cccnn12` (single isomer, unassigned) [Example 5, 2-(2-Hydroxy-2-methylspiro[3.5]nonan-7-yl)-N-(imidazo[1,2-b]pyridazin-3-yl)-6-methoxy-2H-indazole-5-carboxamide] was tested, and the IC50 [1] was 31 nM, the IC50 [2, 5] was 16 nM and the IC50 [3] was 0.5 nM.

In the case of `COc1cc2nn([C@H]3CCC[C@@H](O)C3)cc2cc1C(=O)Nc1cnc2cccnn12` (single isomer, unassigned) [Example 10], the IC50 [1] is reported as 19 nM, the IC50 [2, 5] is reported as 14 nM and the IC50 [3] is reported as 1.2 nM.

`COc1cc2nn([C@H]3CCC[C@@H](O)C3)cc2cc1C(=O)Nc1cnn2cccnc12` (single isomer, unassigned) [Example 13] showed an IC50 [1] of 816 nM, an IC50 [2, 5] of 59 nM and an IC50 [3] of 6.5 nM.

With `COc1cc2nn([C@H]3CCC[C@@H](O)C3)cc2cc1C(=O)Nc1cnn2cccnc12` (single isomer, unassigned) [Example 14] the IC50 [1] was 171 nM, the IC50 [2, 4] was 38 nM and the IC50 [3] was 17.7 nM.

With `O=C(Nc1cnn2cccnc12)c1cc2cn([C@H]3CCC[C@H](O)C3)nc2cc1OC1CC1` (single isomer, unassigned) [Example 19] the IC50 [1] was 47 nM, the IC50 [2, 5] was 35 nM and the IC50 [3] was 1 nM.

`O=C(Nc1cnn2cccnc12)c1cc2cn([C@H]3CCC[C@H](O)C3)nc2cc1OC1CC1` (single isomer, unassigned) [Example 20] showed an IC50 [1] of 35 nM, an IC50 [2, 4] of 31 nM and an IC50 [3] of 0.7 nM.

For `CC(=O)N1CC2(CC[C@@H](n3cc4cc(C(=O)Nc5cnn6cccnc56)c(OC5CC5)cc4n3)[C@H](C)C2)C1` (single isomer, unassigned) [Example 29], the IC50 [1] was 31 nM, the IC50 [2, 5] was 20 nM and the IC50 [3] was 0.5 nM.

`CC(=O)N1CC2(CC[C@@H](n3cc4cc(C(=O)Nc5cnn6cccnc56)c(OC5CC5)cc4n3)[C@@H](C)C2)C1` (single isomer, unassigned) [Example 30] showed an IC50 [1] of 46 nM, an IC50 [2, 4] of 14 nM and an IC50 [3] of less than 0.3 nM.

In the case of `CC(=O)N1CC2(CC[C@@H](n3cc4cc(C(=O)Nc5cnn6cccnc56)c(OC5CC5)cc4n3)[C@@H](C)C2)C1` (single isomer, unassigned) [Example 31], the IC50 [1] is reported as 71 nM, the IC50 [2, 4] is reported as 32 nM and the IC50 [3] is reported as 0.8 nM.

In the case of `COc1cc2nn([C@H]3CCC(N(C)C(C)=O)C[C@@H]3C)cc2cc1C(=O)Nc1cnc2cccnn12` (single isomer, unassigned) [Example 34, N-(imidazo[1,2-b]pyridazin-3-yl)-6-methoxy-2-((1S,2S,4R*)-2-methyl-4-(N-methylacetamido)cyclohexyl)-2H-indazole-5-carboxamide], the IC50 [1] is reported as 31 nM, the IC50 [2, 5] is reported as 22 nM and the IC50 [3] is reported as 2 nM.

For `COc1cc2nn([C@@H]3CCC(N(C)C(C)=O)C[C@H]3C)cc2cc1C(=O)Nc1cnc2cccnn12` (single isomer, unassigned) [Example 37, N-(imidazo[1,2-b]pyridazin-3-yl)-6-methoxy-2-(1R,2R,4R*)-2-methyl-4-(N-methylacetamido)cyclohexyl)-2H-indazole-5-carboxamide], the IC50 [1] was 6 nM, the IC50 [2, 5] was 3 nM and the IC50 [3] was 0.3 nM.

`COc1cc2nn(C3CCC(N(C)C(=O)[C@H]4C[C@H](O)C4)CC3)cc2cc1C(=O)Nc1cnn2cccnc12` (stereo partly drawn) [Example 97, 2-((1R,4r)-4-((1r,3R)-3-hydroxy-N-methylcyclobutane-1-carboxamido)cyclohexyl)-6-methoxy-N-(pyrazolo[1,5-a]pyrimidin-3-yl)-2H-indazole-5-carboxamide] gave an IC50 [1] of 15 nM and an IC50 [3] of 0.7 nM.

`COc1cc2nn(C3CCC(N(C)C(=O)C4CC(O)C4)CC3)cc2cc1C(=O)Nc1cnn2cnccc12` [Example 98, 2-((1R,4r)-4-((1s,3S)-3-hydroxy-N-methylcyclobutane-1-carboxamido)cyclohexyl)-6-methoxy-N-(pyrazolo[1,5-c]pyrimidin-3-yl)-2H-indazole-5-carboxamide] showed an IC50 [1] of 20 nM and an IC50 [3] of 0.6 nM.

For `COc1cc2nn([C@H]3CC[C@H](N(C)C(=O)C(C)(C)O)CC3)cc2cc1C(=O)Nc1cnn2cnccc12` [Example 99, 2-((1r,4r)-4-(2-Hydroxy-N,2-dimethylpropanamido)cyclohexyl)-6-methoxy-N-(pyrazolo[1,5-c]pyrimidin-3-yl)-2H-indazole-5-carboxamide], the IC50 [1] was 35 nM and the IC50 [3] was 1.2 nM.

For `CO[C@H]1C[C@H](Oc2cc3nn(C4CCC5(CC4)CN(C(C)=O)C5)cc3cc2C(=O)Nc2cnc3cccnn23)C1` [Example 100, 2-(2-Acetyl-2-azaspiro[3.5]nonan-7-yl)-N-(imidazo[1,2-b]pyridazin-3-yl)-6-((1r,3r)-3-methoxycyclobutoxy)-2H-indazole-5-carboxamide], the IC50 [1] was 6 nM and the IC50 [3] was less than 0.03 nM.

`CO[C@H]1C[C@@H](Oc2cc3nn(C4CCC5(CC4)CN(C(C)=O)C5)cc3cc2C(=O)Nc2cnc3cccnn23)C1` [Example 101, 2-(2-Acetyl-2-azaspiro[3.5]nonan-7-yl)-N-(imidazo[1,2-b]pyridazin-3-yl)-6-((1s,3s)-3-methoxycyclobutoxy)-2H-indazole-5-carboxamide] gave an IC50 [1] of 31 nM and an IC50 [3] of less than 0.4 nM.

In the case of `COc1cc2nn([C@H]3CC[C@H](n4ccnn4)CC3)cc2cc1C(=O)Nc1cnc2cccnn12` [Example 102, 2-((1r,4r)-4-(1H-1,2,3-triazol-1-yl)cyclohexyl)-N-(imidazo[1,2-b]pyridazin-3-yl)-6-methoxy-2H-indazole-5-carboxamide], the IC50 [1] is reported as 19 nM and the IC50 [3] is reported as 0.7 nM.

`COc1cc2nn([C@H]3CC[C@H](n4nccn4)CC3)cc2cc1C(=O)Nc1cnc2cccnn12` [Example 103, 2-((1r,4r)-4-(2H-1,2,3-triazol-2-yl)cyclohexyl)-N-(imidazo[1,2-b]pyridazin-3-yl)-6-methoxy-2H-indazole-5-carboxamide] gave an IC50 [1] of 17 nM and an IC50 [3] of 0.6 nM.

`COc1cc2nn([C@H]3CC[C@H](N(C)C(=O)C[C@H](C)O)CC3)cc2cc1C(=O)Nc1cnn2cccnc12` [Example 110, 2-((1S,4r)-4-((S)-3-Hydroxy-N-methylbutanamido)cyclohexyl)-6-methoxy-N-(pyrazolo[1,5-a]pyrimidin-3-yl)-2H-indazole-5-carboxamide] was tested, and the IC50 [1] was 16 nM and the IC50 [3] was 0.9 nM.

With `COc1cc2nn([C@H]3CC[C@H](N(C)C(=O)C[C@@H](C)O)CC3)cc2cc1C(=O)Nc1cnn2cccnc12` [Example 111, 2-((1R,4r)-4-((R)-3-Hydroxy-N-methylbutanamido)cyclohexyl)-6-methoxy-N-(pyrazolo[1,5-a]pyrimidin-3-yl)-2H-indazole-5-carboxamide] the IC50 [1] was 27 nM and the IC50 [3] was 0.9 nM.

`COc1cc2nn([C@H]3CC[C@H](N(C)C(=O)N4CC[C@H](O)C4)CC3)cc2cc1C(=O)Nc1cnc2cccnn12` [Example 116, 2-((1S,4r)-4-((S)-3-Hydroxy-N-methylpyrrolidine-1-carboxamido)cyclohexyl)-N-(imidazo[1,2-b]pyridazin-3-yl)-6-methoxy-2H-indazole-5-carboxamide] showed an IC50 [1] of 13 nM and an IC50 [3] of 0.3 nM.

In the case of `COc1cc2nn([C@H]3CC[C@H](N(C)C(=O)N4CC[C@@H](O)C4)CC3)cc2cc1C(=O)Nc1cnc2cccnn12` [Example 117, 2-((1R,4r)-4-((R)-3-Hydroxy-N-methylpyrrolidine-1-carboxamido)cyclohexyl)-N-(imidazo[1,2-b]pyridazin-3-yl)-6-methoxy-2H-indazole-5-carboxamide], the IC50 [1] is reported as 22 nM and the IC50 [3] is reported as 0.3 nM.
